Laboratory results as given in PubChem BioAssay AID1963858 (Molecular Pharmacology Branch, DTP, NCI, 2024).
Values joined by “and” are separate entries in the source; they are usually repeats but may differ in a detail not shown here. Equal values may be shown once.

Tested on: HOP-62 multicell spheroids with HUVEC/MSC, viability
Assay: Anticancer human tumor HOP-62 cell line growth inhibition [KRAS2];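 also: viability read after a week of compound exposure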;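 as to viability, T/C: 100% = DMSO vehicle-treated spheroids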
Conditions: for viability, T/C: stronger effect = lower value
How it was run: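 Combination screen of spheroid viability in tumor-cell co-cultures with endothelial (HUVEC) and mesenchymal stem cell stroma. Each agent was tested in half-log dilutions, topping at clinical Cmax or at 10 microM without a known Cmax.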

[1] = curve of first compound, second compound 0.1 µM
[2] = curve of first compound, second compound 0.316 µM
[3] = curve of first compound, second compound 1 µM
[4] = curve of first compound, second compound 3.16 µM
[5] = second compound 0.1 µM, first compound 0.0316 µM
[6] = second compound 0.1 µM, first compound 0.1 µM
[7] = second compound 0.1 µM, first compound 0.316 µM
[8] = second compound 0.1 µM, first compound 1 µM
[9] = second compound 0.1 µM, first compound 3.16 µM
[10] = second compound 0.1 µM, first compound 10 µM
[11] = second compound 0.316 µM, first compound 0.0316 µM
[12] = second compound 0.316 µM, first compound 0.1 µM
[13] = second compound 0.316 µM, first compound 0.316 µM
[14] = second compound 0.316 µM, first compound 1 µM
[15] = second compound 0.316 µM, first compound 3.16 µM
[16] = second compound 0.316 µM, first compound 10 µM
[17] = second compound 1 µM, first compound 0.0316 µM
[18] = second compound 1 µM, first compound 0.1 µM
[19] = second compound 1 µM, first compound 0.316 µM
[20] = second compound 1 µM, first compound 1 µM
[21] = second compound 1 µM, first compound 3.16 µM
[22] = second compound 1 µM, first compound 10 µM
[23] = second compound 3.16 µM, first compound 0.0316 µM
[24] = second compound 3.16 µM, first compound 0.1 µM
[25] = second compound 3.16 µM, first compound 0.316 µM
[26] = second compound 3.16 µM, first compound 1 µM
[27] = second compound 3.16 µM, first compound 3.16 µM
[28] = second compound 3.16 µM, first compound 10 µM

Row | Compound | IC50 [1] | IC50 [2] | IC50 [3] | IC50 [4] | viability, T/C [5] | viability, T/C [6] | viability, T/C [7] | viability, T/C [8] | viability, T/C [9] | viability, T/C [10] | viability, T/C [11] | viability, T/C [12] | viability, T/C [13] | viability, T/C [14] | viability, T/C [15] | viability, T/C [16] | viability, T/C [17] | viability, T/C [18] | viability, T/C [19] | viability, T/C [20] | other results
1 | COC(=O)c1ccc2c(C(=Nc3ccc(N(C)C(=O)CN4CCN(C)CC4)cc3)c3ccccc3)c(O)[nH]c2c1 + C=CC(=O)N1CCN(c2nc(OCC3CCCN3C)nc3c2CCN(c2cccc4cccc(C)c24)C3)CC1CC#N | < 31.6 nM | < 31.6 nM | < 31.6 nM | < 31.6 nM | 30% | 32.6% | 21.7% | 23% | 20.5% | 8.85% | 25.7% | 21.7% | 24.1% | 21.7% | 20% | 1.11% | 26.5% | 19.2% | 19.7% | 17.8% | IC50 (curve of first compound, second compound 0.0316 µM): < 31.6 nM; viability, T/C (second compound 0.0316 µM, first compound 0.0316 µM): 42.5%; viability, T/C (second compound 0.0316 µM, first compound 0.1 µM): 36.9%; viability, T/C (second compound 0.0316 µM, first compound 0.316 µM): 28.2%; viability, T/C (second compound 0.0316 µM, first compound 1 µM): 26.6%; viability, T/C (second compound 0.0316 µM, first compound 3.16 µM): 25.1%; viability, T/C (second compound 0.0316 µM, first compound 10 µM): 7.5%; viability, T/C [21]: 8.02%; viability, T/C [22]: 0.28%; viability, T/C [23]: 6.95%; viability, T/C [24]: 3.11%; viability, T/C [25]: 20.2%; viability, T/C [26]: 0.09%; viability, T/C [27]: 0.09%; viability, T/C [28]: 0.95%
2 | COc1cc2nccc(Oc3ccc(NC(=O)C4(C(=O)Nc5ccc(F)cc5)CC4)cc3)c2cc1OC + CNCc1ccccc1-c1csc(C(C)Nc2nc(C)nc3cc(OC)c(OC)cc23)c1 | 5360 nM | 4800 nM | 3670 nM | < 31.6 nM | 92.4% | 94.1% | 102% | 96.3% | 76% | 19.3% | 90.6% | 82.8% | 81.7% | 86.9% | 69.8% | 15.2% | 74.7% | 79.2% | 85.6% | 80.7% | IC50 (curve of first compound, second compound 10 µM): < 31.6 nM; viability, T/C [21]: 57.5%; viability, T/C [22]: 0.44%; viability, T/C [23]: 0.34%; viability, T/C [24]: 0.17%; viability, T/C [25]: 0.13%; viability, T/C [26]: 0.15%; viability, T/C [27]: 0.22%; viability, T/C [28]: 0.14%; viability, T/C (second compound 10 µM, first compound 0.0316 µM): 0.12%; viability, T/C (second compound 10 µM, first compound 0.1 µM): 0.14%; viability, T/C (second compound 10 µM, first compound 0.316 µM): 0.12%; viability, T/C (second compound 10 µM, first compound 1 µM): 0.11%; viability, T/C (second compound 10 µM, first compound 3.16 µM): 0.12%; viability, T/C (second compound 10 µM, first compound 10 µM): 0.19%
3 | Cn1ncnc1[C@H]1c2n[nH]c(=O)c3cc(F)cc(c23)N[C@@H]1c1ccc(F)cc1 | – | – | – | – | – | – | – | – | – | – | – | – | – | – | – | – | – | – | – | – | viability, T/C (compound 0.000316 µM): 105% [middle of 5 runs]; viability, T/C (compound 0.001 µM): 102% (2×) and 95.9% and 103% (2×); viability, T/C (compound 0.00316 µM): 103% [middle of 5 runs]; viability, T/C (compound 0.01 µM): 99.4% [middle of 5 runs]; viability, T/C (compound 0.0316 µM): 98% [middle of 5 runs]; viability, T/C (compound 0.1 µM): 85.3% [middle of 5 runs]; IC50 (curve of compound): > 100 nM
